According to paper PMC10349142, “Minimal mechanistic component of HbYX-dependent proteasome activation that reverses impairment by neurodegenerative-associated oligomers” (Communications Biology, 2023):

Tests used:
[1] = target: T1, Mammalian 20S proteasome (M20S); assay: fluorogenic peptide hydrolysis, activator saturation curve; assay type: biochemical, Bos taurus
T1 construct: gene PSMA5; native 20S core particle purified from bovine liver; alpha7-beta7-beta7-alpha7; with Proteasome subunit beta type-1; Proteasome subunit beta type-2; Proteasome subunit beta type-3; Proteasome subunit beta type-4; Proteasome subunit beta type-5; Proteasome subunit beta type-6; Proteasome subunit beta type-7
From the text: fluorogenic peptide hydrolysis, activator saturation curve on Mammalian 20S proteasome (M20S)

[2] = target: T1, Mammalian 20S proteasome (M20S); assay: fluorogenic peptide hydrolysis, activator saturation curve (Hill fit); assay type: biochemical, Bos taurus; conditions: activation (gate opening); nLPnLD-AMC substrate; 0.5 nM 20S; pH 7.5; 37 °C; 2% DMSO; allosteric, alpha intersubunit pockets; read-out: Kobs
From the text: fluorogenic peptide hydrolysis, activator saturation curve (Hill fit) on Mammalian 20S proteasome (M20S)

[3] = target: T2, T. acidophilum 20S proteasome (T20S) (Thermoplasma acidophilum, UniProt P25156, K66A); assay: LFP nonapeptide hydrolysis; assay type: biochemical; conditions: 7 nM T20S; LFP substrate; pH 7.5; 45 °C; 2% DMSO
T2 construct: gene psmA; recombinant 20S core particle; 8xHis tag on C-terminus of beta subunit; with Proteasome subunit beta
T2 sequence (P25156 whole entry K66A): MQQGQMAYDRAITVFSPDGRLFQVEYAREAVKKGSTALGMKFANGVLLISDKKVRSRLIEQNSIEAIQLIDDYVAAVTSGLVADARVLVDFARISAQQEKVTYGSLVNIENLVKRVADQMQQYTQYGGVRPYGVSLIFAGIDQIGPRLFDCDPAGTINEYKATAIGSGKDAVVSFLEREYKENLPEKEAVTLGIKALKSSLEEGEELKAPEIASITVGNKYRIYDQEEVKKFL
T2 sequence (P28061 9-211, further chain): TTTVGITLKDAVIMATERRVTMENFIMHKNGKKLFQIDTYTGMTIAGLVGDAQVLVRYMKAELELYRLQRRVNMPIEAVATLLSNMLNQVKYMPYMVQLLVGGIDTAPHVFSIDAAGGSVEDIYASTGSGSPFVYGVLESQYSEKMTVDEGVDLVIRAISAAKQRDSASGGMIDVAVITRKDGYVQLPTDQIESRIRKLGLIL

[4] = target: T3, T. acidophilum 20S proteasome (T20S) (Thermoplasma acidophilum, UniProt P25156, DEL2-12); assay: LFP nonapeptide hydrolysis; assay type: biochemical; conditions: 7 nM T20S; LFP substrate; pH 7.5; 45 °C; 2% DMSO
T3 construct: gene psmA; recombinant 20S core particle; 8xHis tag on C-terminus of beta subunit; with Proteasome subunit beta
T3 sequence (P25156 other isoform, or with tags, fused parts or gaps DEL2-12): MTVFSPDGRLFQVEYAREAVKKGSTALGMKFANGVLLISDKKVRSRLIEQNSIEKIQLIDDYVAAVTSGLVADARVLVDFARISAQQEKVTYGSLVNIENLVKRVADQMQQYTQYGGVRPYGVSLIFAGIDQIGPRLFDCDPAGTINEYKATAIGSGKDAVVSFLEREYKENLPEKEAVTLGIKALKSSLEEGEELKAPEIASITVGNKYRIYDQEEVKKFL
T3 sequence (P28061 9-211, stated change not applied, further chain): as the sequence (P28061 9-211, further chain) above

[5] = target: T4, T. acidophilum 20S proteasome (T20S) (Thermoplasma acidophilum, UniProt P25156); assay: LFP nonapeptide hydrolysis, dose response; assay type: biochemical; conditions: activation (gate opening); 7 nM T20S; LFP substrate; pH 7.5; 45 °C; 2% DMSO; allosteric, alpha intersubunit pockets
T4 construct: gene psmA; recombinant 20S core particle; 8xHis tag on C-terminus of beta subunit; with Proteasome subunit beta
T4 sequence (P28061 9-211, stated change not applied): as the sequence (P28061 9-211, further chain) above
T4 sequence (P25156 whole entry, stated change not applied): as the sequence (P25156 whole entry K66A) above, with A66K counted along it

[6] = activation; pH 7.5; 37 °C; 2% DMSO; site unknown; read-out: Kobs

With `CCCCC/C=C\C/C=C\C/C=C\C/C=C\CCCC(=O)Nc1ccc(O)cc1` [AM-404] the EC50 ([1]; read-out: Kobs; activation; pH 7.5; 37 °C; 2% DMSO; site unknown) was 12.1 µM.
`O=C1NCN(c2ccccc2)C12CCN(CCCC(c1ccc(F)cc1)c1ccc(F)cc1)CC2` [Fluspirilene] was tested, and the EC50 [1, 6] was 2.7 µM.
For `CCOC(=O)[C@]1(c2ccccc2)N=C(c2ccc(OC)cc2)N(Cc2ccccc2)[C@@H]1c1ccc(NCc2ccccc2)cc1` [TCH-165], the EC50 [1, 6] was 0.8 µM.
In the case of `C[C@H](NC(=O)[C@H](Cc1ccc(O)cc1)NC(=O)OCc1ccccc1)C(=O)O` [ZYA], the EC50 [2] is reported as 970 µM, the “no activation at 2.5 mM” value [3] is reported as “it could not stimulate gate-opening in T20S-K66A to any extent (Fig. 2d)” and the “no activation at 2.5 mM” value [4] is reported as “ZYA did not stimulate the activity of αΔN-T20S to any extent (Fig. 2e)”. The affinity [5] was “highly similar to its affinity for the T20S (Fig. 2b)”.
